Results published in US12036226B2, “Methods of treating subjects having diabetes with chronic kidney disease” (Poxel SA, priority 2018, dated 2024).

System: acute renal failure (ARF) rat model
Conditions: for plasma glucose: normal rats, 180 minutes, imeglimin and metformin 100 mg/h/kg, phenformin 50 mg/h/kg i.v.
Protocol: The creatinine level, correlated with the degree of the renal function failure, was tested for each rat 7 days after the first injection of gentamicin. […] The creatinine level was determined on the Monarch Chemistry Systems using the IL Test creatinine in rat plasma samples. This monochromatic analysis is based on the formation of a red colored complex between creatinine and picric acid under alkaline conditions.

Compound | plasma glucose | effect on plasma [HCO3−] (rat, in vivo) | effect on plasma lactate (rat, in vivo) | effect on plasma lactate level (rat, in vivo) | lactic acidosis (rat, in vivo) | plasma H+ concentration / metabolic acidosis signs (rat, in vivo) | plasma accumulation (rat, in vivo) | plasma glucose after sharp fall (rat, in vivo)
CN(C)C(=N)N=C(N)N [metformin] | 4 ± 0.7 mmol/L | significantly decreased plasma concentration of [HCO3^−] | significantly increased plasma lactate | significantly increased lactatemia | induced lactic acidosis | increased significantly plasma H+ concentration | plasma accumulation of metformin and imeglimin was observed | 1.9 ± 1 mmol/L
[H]/N=C(/N)N/C(=N/[H])NCCc1ccccc1 [phenformin] | 2.9 ± 1 mmol/L | significantly decreased plasma concentration of [HCO3^−] | significantly increased plasma lactate | significantly increased lactatemia | induced lactic acidosis | increased significantly plasma H+ concentration | – | 2.4 ± 1.1 mmol/L
